US9242945B2, “Substituted 2-benzylidene-2H-benzo[b][1,4]thiazin-3(4H)-ones, derivatives thereof, and therapeutic uses thereof” (TEMPLE UNIVERSITY—OF THE COMMONWEALTH SYSTEM OF HIGHER …, priority 2011, dated 2016)
Like-named read-outs stand apart in the source and are kept apart here.

What was measured:
[1] = test system: K562 (chronic myelogenous leukemia; leukemia cell line +ve for Bcr-Abl); assay: Cytotoxicity assay, K562 tumor cells; assay type: cell-based; conditions: Homo sapiens, K562, 96 h treatment
Method: (§1) The effect of the compounds of the invention on tumor cells was determined by the assay described by Latham et al., Oncogene 12:827-837 (1996). Tumor cells K562 (chronic myelogenous leukemia; leukemia cell line +ve for Bcr-Abl) or DU145 (prostate cancer) were plated in 12-well dishes at a cell density of 2.5×10^4 cells well. The plated cells were treated 24 hours later with a compound of the invention dissolved in DMSO at multiple concentrations ranging from 0.01 μM to 100 μM. The plates were examined 96 hours later under an inverted microscope, Olympus CK-2 using a 10× objective, and compound activity was noted by physical observation. When necessary, the total number of viable cells was determined by trypsinizing the wells and counting the number of viable cells, as determined by trypan blue exclusion, using a hemacytometer. Where “Lower” and “Upper” value are provided in Table 5, the IC50 was determined to be within that range. When only a “Lower” value is provided and no “Upper” value is listed, the IC50 was that value, or less than or greater than that value, as set forth in the Table.
(§2) The cytotoxicity of Compound 42, (Z)-6-((2,6-dichlorobenzyl)sulfonyl)-2-(4-hydroxy-3-nitrobenzylidene)-2H-benzo[b][1,4]thiazin-3(4H)-one, was determined according the assay method of Example 7 on the prostate (androgen dependent or independent), breast and pancreatic cancer cell lines listed in Table 6A, below, and the additional cell lines listed in Table 6B, below. The human mesenchymal stem cell line HMSC.hTERT and normal human fibroblast cell line HFL was included in the test.

DU145 (prostate cancer) = assay: Cytotoxicity assay, DU145 tumor cells; assay type: cell-based; conditions: Homo sapiens, DU-145, 96 h treatment
Method: as §1, §2

[2] = lower limit of the IC50 range, or the IC50 itself (or its bound) where no Upper value is listed, read-out: K562 IC50 (μm) Lower (μm)
[3] = upper limit of the IC50 range, read-out: K562 IC50 (μm) Upper (μm)
[4] = lower limit of the IC50 range, or the IC50 itself (or its bound) where no Upper value is listed, read-out: DU145 IC50 (μm) Lower (μm)
[5] = upper limit of the IC50 range, read-out: DU145 IC50 (μm) Upper (μm)

Row | Compound | IC50 [1, 2] [µM] | IC50 [1, 3] [µM] | IC50 (DU145 (prostate cancer); [4]) [µM] | IC50 (DU145 (prostate cancer); [5]) [µM]
1 | O=C1Nc2cc(S(=O)(=O)Cc3c(Cl)cccc3Cl)ccc2S/C1=C\c1ccc(F)cc1F [Compound 30, (Z)-6-((2,6-dichlorobenzyl)sulfonyl)-2-(2,4-difluorobenzylidene)-2H-benzo[b][1,4]thiazin-3(4H)-one] | ≥ 1 | ≤ 10 | ≥ 1 | ≤ 10
2 | O=C1Nc2cc(S(=O)(=O)Cc3c(Cl)cccc3Cl)ccc2S/C1=C\c1ccc(F)cc1 [Compound 16, (Z)-6-((2,6-dichlorobenzyl)sulfonyl)-2-(4-fluorobenzylidene)-2H-benzo[b][1,4]thiazin-3(4H)-one] | ≥ 1 | ≤ 10 | ≥ 1 | ≤ 10
3 | O=C1Nc2cc(S(=O)(=O)Cc3c(Cl)cccc3Cl)ccc2S/C1=C\c1ccc(Br)cc1 [Compound 18, (Z)-2-(4-bromobenzylidene)-6-((2,6-dichlorobenzyl)sulfonyl)-2H-benzo[b][1,4]thiazin-3(4H)-one] | ≥ 1 | ≤ 10 | ≥ 1 | ≤ 10
4 | CSc1nccc(/C=C2\Sc3ccc(S(=O)(=O)Cc4c(Cl)cccc4Cl)cc3NC2=O)n1 [Compound 36, (Z)-6-((2,6-dichlorobenzyl)sulfonyl)-2-((2-(methylthio)pyrimidin-4-yl)methylene)-2H-benzo[b][1,4]thiazin-3(4H)-one] | > 2.5 | – | 2 | –
5 | O=C1Nc2cc(S(=O)(=O)Cc3c(Cl)cccc3Cl)ccc2S/C1=C\c1c(F)cc(F)cc1F [Compound 31, (Z)-6-((2,6-dichlorobenzyl)sulfonyl)-2-(2,4,6-trifluorobenzylidene)-2H-benzo[b][1,4]thiazin-3(4H)-one] | ≥ 1 | ≤ 10 | ≥ 1 | ≤ 10
6 | Nc1ccc(/C=C2\Sc3ccc(S(=O)(=O)Cc4c(Cl)cccc4Cl)cc3NC2=O)cc1 [Compound 15, (Z)-2-(4-aminobenzylidene)-6-((2,6-dichlorobenzyl)sulfonyl)-2H-benzo[b][1,4]thiazin-3(4H)-one] | 0.03 | – | 0.04 | –
7 | COC(=O)c1ccc(/C=C2\Sc3ccc(S(=O)(=O)Cc4c(Cl)cccc4Cl)cc3NC2=O)cc1 [Compound 32, (Z)-methyl 4-((6-((2,6-dichlorobenzyl)sulfonyl)-3-oxo-3,4-dihydro-2H-benzo[b][1,4]thiazin-2-ylidene)methyl)benzoate] | ≥ 1 | ≤ 10 | ≥ 0.5 | ≤ 1
8 | CC(=O)Oc1ccc(/C=C2\Sc3cc(Br)ccc3NC2=O)cc1[N+](=O)[O-] [Compound 3, (Z)-4-((7-bromo-3-oxo-3,4-dihydro-2H-benzo[b][1,4]thiazin-2-ylidene)methyl)-2-nitrophenyl acetate] | ≥ 1 | ≤ 10 | ≥ 10 | ≤ 25
9 | O=C1Nc2cc(S(=O)(=O)Cc3c(Cl)cccc3Cl)ccc2S/C1=C\c1ccnc(N2CCOCC2)n1 [Compound 37, (Z)-6-((2,6-dichlorobenzyl)sulfonyl)-2-((2-morpholinopyrimidin-4-yl)methylene)-2H-benzo[b][1,4]thiazin-3(4H)-one] | ≥ 1 | ≤ 10 | ≥ 1 | ≤ 10
10 | O=C1Nc2cc(S(=O)(=O)Cc3c(Cl)cccc3Cl)ccc2S/C1=C\c1cccs1 [Compound 33, (Z)-6-((2,6-dichlorobenzyl)sulfonyl)-2-(thiophen-2-ylmethylene)-2H-benzo[b][1,4]thiazin-3(4H)-one] | ≥ 0.5 | ≤ 1 | ≥ 0.5 | ≤ 1
11 | O=C1Nc2cc(S(=O)(=O)Cc3c(Cl)cccc3Cl)ccc2S/C1=C\c1ccc(OCc2ccccc2)c([N+](=O)[O-])c1 [Compound 41, (Z)-2-(4-(benzyloxy)-3-nitrobenzylidene)-6-((2,6-dichlorobenzyl)sulfonyl)-2H-benzo[b][1,4]thiazin-3(4H)-one] | 0.75 | – | 1.5 | –
12 | COc1ccc2c(c1)S/C(=C\c1ccc(OC(C)=O)c([N+](=O)[O-])c1)C(=O)N2 [Compound 2, (Z)-4-((7-methoxy-3-oxo-3,4-dihydro-2H-benzo[b][1,4]thiazin-2-ylidene)methyl)-2-nitrophenyl acetate] | ≥ 1 | ≤ 10 | ≥ 1 | ≤ 10
13 | CC(=O)Oc1ccc(/C=C2\Sc3cc(F)ccc3NC2=O)cc1[N+](=O)[O-] [Compound 6, (Z)-4-((7-fluoro-3-oxo-3,4-dihydro-2H-benzo[b][1,4]thiazin-2-ylidene)methyl)-2-nitrophenyl acetate] | ≥ 1 | ≤ 10 | – | ≤ 1
14 | O=C1Nc2cc(S(=O)(=O)Cc3c(Cl)cccc3Cl)ccc2S/C1=C\c1ccccc1 [Compound 10, (Z)-2-benzylidene-6-((2,6-dichlorobenzyl)sulfonyl)-2H-benzo[b][1,4]thiazin-3(4H)-one] | ≥ 1 | ≤ 10 | < 1 | –
15 | CN1CCN(c2ccc(/C=C3\Sc4ccc(S(=O)(=O)Cc5c(Cl)cccc5Cl)cc4NC3=O)cc2)CC1 [Compound 13, (Z)-6-((2,6-dichlorobenzyl)sulfonyl)-2-(4-(4-methylpiperazin-1-yl)benzylidene)-2H-benzo[b][1,4]thiazin-3(4H)-one] | ≥ 0.5 | ≤ 1 | ≥ 1 | ≤ 10
16 | O=C1Nc2cc(S(=O)(=O)Cc3c(Cl)cccc3Cl)ccc2S/C1=C\c1ccc(Cl)c([N+](=O)[O-])c1 [Compound 29, (Z)-2-(4-chloro-3-nitrobenzylidene)-6-((2,6-dichlorobenzyl)sulfonyl)-2H-benzo[b][1,4]thiazin-3(4H)-one] | ≥ 1 | ≤ 10 | ≥ 0.5 | ≤ 1
17 | CC(=O)Oc1ccc(/C=C2\Sc3ccc(Cl)cc3NC2=O)cc1[N+](=O)[O-] [Compound 1, (Z)-4-((6-chloro-3-oxo-3,4-dihydro-2H-benzo[b][1,4]thiazin-2-ylidene)methyl)-2-nitrophenyl acetate] | ≥ 10 | ≤ 25 | ≥ 1 | ≤ 10
18 | CC(=O)n1cc(/C=C2\Sc3ccc(S(=O)(=O)Cc4c(Cl)cccc4Cl)cc3NC2=O)c2ccccc21 [Compound 26, (Z)-2-((1-acetyl-1H-indol-3-yl)methylene)-6-((2,6-dichlorobenzyl)sulfonyl)-2H-benzo[b][1,4]thiazin-3(4H)-one] | ≥ 0.5 | ≤ 1 | ≥ 0.5 | ≤ 1
19 | O=C1Nc2cc(S(=O)(=O)Cc3c(Cl)cccc3Cl)ccc2S/C1=C\c1ccc(Cl)cc1Cl [Compound 22, (Z)-6-((2,6-dichlorobenzyl)sulfonyl)-2-(2,4-dichlorobenzylidene)-2H-benzo[b][1,4]thiazin-3(4H)-one] | ≥ 1 | ≤ 10 | ≥ 1 | ≤ 10
20 | COC(=O)c1ccc(/C=C2\Sc3ccc(S(=O)(=O)Cc4c(Cl)cccc4Cl)cc3NC2=O)c([N+](=O)[O-])c1 [Compound 35, (Z)-methyl 4-((6-((2,6-dichlorobenzyl)sulfonyl)-3-oxo-3,4-dihydro-2H-benzo[b][1,4]thiazin-2-ylidene)methyl)-3-nitrobenzoate] | ≥ 1 | ≤ 10 | > 10 | –
21 | CC(=O)Oc1ccc(/C=C2\Sc3ccc(S(=O)(=O)Cc4c(Cl)cccc4Cl)cc3NC2=O)cc1 [Compound 9, (Z)-4-((6-((2,6-dichlorobenzyl)sulfonyl)-3-oxo-3,4-dihydro-2H-benzo[b][1,4]thiazin-2-ylidene)methyl)phenyl acetate] | < 1 | – | < 1 | –
22 | CC(=O)Oc1ccc(/C=C2\Sc3ccc(S(=O)(=O)Cc4c(Cl)cccc4Cl)cc3NC2=O)cc1[N+](=O)[O-] [Compound 8, (Z)-4-((6-((2,6-dichlorobenzyl)sulfonyl)-3-oxo-3,4-dihydro-2H-benzo[b][1,4]thiazin-2-ylidene)methyl)-2-nitrophenyl acetate] | 0.075 | – | 0.1 | –
23 | COc1ccc(/C=C2\Sc3ccc(S(=O)(=O)Cc4c(Cl)cccc4Cl)cc3NC2=O)cc1N [Compound 12, (Z)-2-(3-amino-4-methoxybenzylidene)-6-((2,6-dichlorobenzyl)sulfonyl)-2H-benzo[b][1,4]thiazin-3(4H)-one] | ≥ 0.1 | ≤ 0.25 | ≥ 0.25 | ≤ 0.5
24 | O=C1Nc2cc(S(=O)(=O)Cc3c(Cl)cccc3Cl)ccc2S/C1=C\c1ccc(-c2nn[nH]n2)cc1 [Compound 39, (Z)-2-(4-(2H-tetrazol-5-yl)benzylidene)-6-((2,6-dichlorobenzyl)sulfonyl)-2H-benzo[b][1,4]thiazin-3(4H)-one] | ≥ 1 | ≤ 10 | ≥ 1 | ≤ 10
